Measured values from ChEMBL document CHEMBL5678818, “Discovery of potent SOS1 inhibitors that block RAS activation via disruption of the RAS-SOS1 interaction” (Proc Natl Acad Sci U S A, 2019).

Experiments:
[1] = biological target: Cyclin-dependent kinase 18 (Homo sapiens) (UniProt Q07002); assay: Inhibition of PCTK3 (unknown origin) assessed as residual activity at 100 nM by KINOMEscan analysis relative to control
[2] = biological target: Microtubule-associated serine/threonine-protein kinase 1 (Homo sapiens) (UniProt Q9Y2H9); assay: Inhibition of MAST1 (unknown origin) assessed as residual activity at 100 nM by KINOMEscan analysis relative to control
Microtubule-associated serine/threonine-protein kinase 1 (Homo sapiens), sequence (Q9Y2H9 whole entry, looked up): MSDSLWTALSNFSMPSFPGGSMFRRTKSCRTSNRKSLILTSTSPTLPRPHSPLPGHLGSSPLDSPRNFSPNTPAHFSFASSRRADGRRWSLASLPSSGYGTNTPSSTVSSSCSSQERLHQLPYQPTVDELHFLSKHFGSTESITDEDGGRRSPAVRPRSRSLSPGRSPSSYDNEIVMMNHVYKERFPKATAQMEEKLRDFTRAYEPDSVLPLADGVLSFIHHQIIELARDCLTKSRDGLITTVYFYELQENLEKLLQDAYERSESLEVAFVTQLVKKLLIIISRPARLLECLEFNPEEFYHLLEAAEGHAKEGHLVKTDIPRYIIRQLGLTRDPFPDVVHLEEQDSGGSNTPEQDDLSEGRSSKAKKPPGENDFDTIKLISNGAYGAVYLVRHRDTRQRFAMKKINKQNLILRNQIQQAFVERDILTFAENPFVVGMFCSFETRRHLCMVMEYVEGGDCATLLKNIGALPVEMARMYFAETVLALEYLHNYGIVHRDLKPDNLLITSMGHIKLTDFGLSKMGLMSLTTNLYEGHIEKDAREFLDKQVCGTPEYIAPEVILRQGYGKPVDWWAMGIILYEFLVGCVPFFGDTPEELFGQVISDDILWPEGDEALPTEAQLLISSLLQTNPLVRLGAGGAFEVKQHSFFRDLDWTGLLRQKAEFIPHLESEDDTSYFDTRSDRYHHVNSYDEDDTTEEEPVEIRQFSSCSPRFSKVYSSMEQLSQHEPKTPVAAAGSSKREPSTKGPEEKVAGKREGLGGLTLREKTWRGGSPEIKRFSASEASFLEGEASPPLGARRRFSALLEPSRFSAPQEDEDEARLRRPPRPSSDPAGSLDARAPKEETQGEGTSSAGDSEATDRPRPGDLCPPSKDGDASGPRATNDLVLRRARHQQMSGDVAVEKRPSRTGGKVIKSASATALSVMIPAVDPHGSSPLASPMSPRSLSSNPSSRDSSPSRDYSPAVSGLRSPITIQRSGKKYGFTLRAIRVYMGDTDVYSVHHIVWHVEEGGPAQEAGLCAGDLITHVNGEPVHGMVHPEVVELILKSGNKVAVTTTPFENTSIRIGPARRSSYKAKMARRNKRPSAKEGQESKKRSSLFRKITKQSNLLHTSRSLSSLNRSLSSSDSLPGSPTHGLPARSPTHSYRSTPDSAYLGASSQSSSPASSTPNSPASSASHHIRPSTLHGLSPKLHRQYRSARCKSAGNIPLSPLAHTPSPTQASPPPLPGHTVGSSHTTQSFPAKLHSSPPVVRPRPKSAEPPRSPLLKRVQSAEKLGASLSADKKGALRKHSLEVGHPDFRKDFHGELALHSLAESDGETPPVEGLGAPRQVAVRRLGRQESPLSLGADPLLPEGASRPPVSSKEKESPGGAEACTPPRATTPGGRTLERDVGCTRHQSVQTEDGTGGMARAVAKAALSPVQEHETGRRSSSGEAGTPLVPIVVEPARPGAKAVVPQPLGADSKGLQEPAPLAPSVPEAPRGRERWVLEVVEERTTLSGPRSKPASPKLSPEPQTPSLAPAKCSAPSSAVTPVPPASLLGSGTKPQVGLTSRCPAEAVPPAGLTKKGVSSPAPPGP

[3] = biological target: T1, Uncharacterized serine/threonine-protein kinase SBK3 (Homo sapiens) (UniProt P0C264); assay: Inhibition of SgK110 (unknown origin) assessed as residual activity at 100 nM by KINOMEscan analysis relative to control
T1 sequence (whole entry): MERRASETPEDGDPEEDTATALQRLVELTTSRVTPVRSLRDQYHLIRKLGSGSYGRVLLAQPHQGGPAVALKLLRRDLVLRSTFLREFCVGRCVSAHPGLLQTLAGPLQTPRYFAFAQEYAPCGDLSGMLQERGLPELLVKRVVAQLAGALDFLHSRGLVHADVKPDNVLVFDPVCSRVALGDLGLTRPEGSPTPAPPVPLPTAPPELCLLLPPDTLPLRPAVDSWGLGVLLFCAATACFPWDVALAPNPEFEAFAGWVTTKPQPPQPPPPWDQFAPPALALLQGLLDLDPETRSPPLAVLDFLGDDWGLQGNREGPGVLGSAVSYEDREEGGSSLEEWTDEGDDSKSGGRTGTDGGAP

[4] = biological target: Serine/threonine-protein kinase PLK2 (Homo sapiens) (UniProt Q9NYY3); assay: Inhibition of PLK2 (unknown origin) assessed as residual activity at 100 nM by KINOMEscan analysis relative to control
Serine/threonine-protein kinase PLK2 (Homo sapiens), sequence (Q9NYY3 whole entry, looked up): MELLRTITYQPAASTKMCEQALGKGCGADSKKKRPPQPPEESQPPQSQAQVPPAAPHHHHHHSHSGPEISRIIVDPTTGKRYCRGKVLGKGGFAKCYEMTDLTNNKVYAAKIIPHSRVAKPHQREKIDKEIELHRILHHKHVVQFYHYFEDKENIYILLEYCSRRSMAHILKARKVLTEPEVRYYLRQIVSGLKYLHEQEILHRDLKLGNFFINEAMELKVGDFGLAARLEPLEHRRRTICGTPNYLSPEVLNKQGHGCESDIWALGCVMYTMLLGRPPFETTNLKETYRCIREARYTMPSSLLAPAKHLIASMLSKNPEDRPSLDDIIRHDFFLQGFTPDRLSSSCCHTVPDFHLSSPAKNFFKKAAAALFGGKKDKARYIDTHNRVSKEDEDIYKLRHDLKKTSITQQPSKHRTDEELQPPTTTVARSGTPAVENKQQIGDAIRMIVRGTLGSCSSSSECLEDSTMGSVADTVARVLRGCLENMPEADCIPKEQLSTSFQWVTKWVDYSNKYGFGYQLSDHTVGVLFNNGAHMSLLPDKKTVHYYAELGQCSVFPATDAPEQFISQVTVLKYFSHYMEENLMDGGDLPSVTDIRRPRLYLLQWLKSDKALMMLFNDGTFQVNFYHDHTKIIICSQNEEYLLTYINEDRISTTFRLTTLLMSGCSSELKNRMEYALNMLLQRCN

[5] = biological target: T2, Cytoplasmic tyrosine-protein kinase BMX (Homo sapiens) (UniProt P51813); assay: Inhibition of BMX (unknown origin) assessed as residual activity at 100 nM by KINOMEscan analysis relative to control
T2 sequence (whole entry): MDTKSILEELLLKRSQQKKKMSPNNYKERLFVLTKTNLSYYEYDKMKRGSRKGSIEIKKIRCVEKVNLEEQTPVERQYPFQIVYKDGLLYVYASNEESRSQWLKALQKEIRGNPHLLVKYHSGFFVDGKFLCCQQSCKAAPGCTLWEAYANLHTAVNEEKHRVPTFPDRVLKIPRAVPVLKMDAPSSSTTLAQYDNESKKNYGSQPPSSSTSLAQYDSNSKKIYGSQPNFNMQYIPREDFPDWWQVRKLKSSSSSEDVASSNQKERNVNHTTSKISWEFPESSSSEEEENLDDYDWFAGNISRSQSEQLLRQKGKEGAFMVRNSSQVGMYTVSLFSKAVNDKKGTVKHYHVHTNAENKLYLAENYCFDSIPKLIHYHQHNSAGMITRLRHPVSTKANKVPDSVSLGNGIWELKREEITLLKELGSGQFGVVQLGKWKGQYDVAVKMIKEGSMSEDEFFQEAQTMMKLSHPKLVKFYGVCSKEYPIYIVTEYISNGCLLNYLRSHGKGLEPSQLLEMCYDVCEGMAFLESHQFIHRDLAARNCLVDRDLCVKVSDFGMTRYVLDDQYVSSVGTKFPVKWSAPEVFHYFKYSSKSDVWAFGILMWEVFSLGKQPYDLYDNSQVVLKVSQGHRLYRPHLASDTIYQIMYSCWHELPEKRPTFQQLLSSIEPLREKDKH

[6] = biological target: T3, Inhibitor of nuclear factor kappa-B kinase subunit alpha (Homo sapiens) (UniProt O15111); assay: Inhibition of IKK-alpha (unknown origin) assessed as residual activity at 100 nM by KINOMEscan analysis relative to control
T3 sequence (whole entry): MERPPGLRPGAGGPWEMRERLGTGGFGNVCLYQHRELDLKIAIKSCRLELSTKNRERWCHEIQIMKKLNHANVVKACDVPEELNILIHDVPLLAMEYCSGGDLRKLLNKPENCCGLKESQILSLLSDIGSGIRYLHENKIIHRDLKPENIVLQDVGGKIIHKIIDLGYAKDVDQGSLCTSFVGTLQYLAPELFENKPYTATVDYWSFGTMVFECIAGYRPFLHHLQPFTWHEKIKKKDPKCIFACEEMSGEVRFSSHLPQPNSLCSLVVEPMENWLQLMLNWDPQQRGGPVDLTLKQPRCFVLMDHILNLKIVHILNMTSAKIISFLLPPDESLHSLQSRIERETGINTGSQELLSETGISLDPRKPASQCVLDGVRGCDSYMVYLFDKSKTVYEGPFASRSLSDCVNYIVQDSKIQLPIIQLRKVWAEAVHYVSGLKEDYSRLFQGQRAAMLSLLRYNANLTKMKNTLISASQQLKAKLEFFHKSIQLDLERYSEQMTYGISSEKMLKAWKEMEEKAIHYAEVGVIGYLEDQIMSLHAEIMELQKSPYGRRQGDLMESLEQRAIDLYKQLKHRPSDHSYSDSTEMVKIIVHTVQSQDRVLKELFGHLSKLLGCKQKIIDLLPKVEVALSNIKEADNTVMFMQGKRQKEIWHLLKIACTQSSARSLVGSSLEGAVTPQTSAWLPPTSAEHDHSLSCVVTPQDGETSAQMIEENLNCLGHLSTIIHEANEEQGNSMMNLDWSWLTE

Cyclin-dependent kinase 18 (Homo sapiens), sequence (Q07002 whole entry): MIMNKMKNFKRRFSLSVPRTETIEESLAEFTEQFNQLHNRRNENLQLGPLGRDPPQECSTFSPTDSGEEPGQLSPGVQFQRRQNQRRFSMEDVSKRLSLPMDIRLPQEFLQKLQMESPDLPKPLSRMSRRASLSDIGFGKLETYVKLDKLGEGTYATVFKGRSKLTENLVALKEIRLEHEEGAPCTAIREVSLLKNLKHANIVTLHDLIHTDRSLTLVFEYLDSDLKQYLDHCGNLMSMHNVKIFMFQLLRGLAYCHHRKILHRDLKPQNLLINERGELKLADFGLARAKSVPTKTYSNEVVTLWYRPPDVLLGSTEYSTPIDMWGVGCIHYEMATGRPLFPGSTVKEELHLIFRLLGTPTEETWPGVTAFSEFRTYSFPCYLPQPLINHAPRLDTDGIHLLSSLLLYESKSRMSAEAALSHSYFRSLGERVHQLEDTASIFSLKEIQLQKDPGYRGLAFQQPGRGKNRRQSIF

COc1cc2ncnc(N[C@H](C)c3cccc4ccccc34)c2cc1OC
Activity [1]: 76%
Activity [2]: 71%
Activity [3]: 100%
Activity [4]: 92%
Activity [5]: 79%
Activity [6]: 79%
